# System: B-100 apolipoprotein
# Experiment: Fragmentation of B-100 apolipoprotein on SDS-PAGE (oxidative modification of LDL)
# Type: biochemical, human
# Settings: 10 μM
# Text: The determination of the melting point has been carried out by means of a capillary melting point apparatus Electrothermal, without any correction. The I.R. spectrum has been obtained by means of a Perkin-Elmer rood. 963/G spectrophotometer generally, when not otherwise specified, preparing the specimen in potassium bromide and recording the spectrum between 4000 and 600 nm. […] The mass spectrum has been recorded by using a VG 7070E mass spectrometer, at a 70 eV ionization voltage and with a 6 Kvolt acceleration voltage. […] Chem., 43, 2923, (1978). […] The antioxidant activity has been evaluated through the capability of some lactones of formula I to prevent and/or delay the oxidative modification of the lipoproteins (LDL), caused by a chemical method by incubating native LDL with cupric ions, according to the method described by Steinbrecher U. P. in J. Biol. Chem., 262, 3603-3608, (1987). The evaluation of the oxidation degree of the LDL through the monitoring of the concentration of aldehydes derived from the degradation of the lipidic peroxides and the observation of the modifications of the B-100 apolipoprotein represent the used experimental approach. The antioxidant activity of the lactones has been expressed in terms of duration of the latency period that represents a parameter of the resistance to the oxidation of the LDL. The LDL have been isolated from the human plasma obtained from blood collected, in the presence of EDTA, from healty volunteers fasting from 8 hours according to the method described by Havel H. in J. Clin. Invest., 34, 1345-1353, (1955). The solution, dialyzed in Visking-Serva dialysis tubes at 4° C. for 72 hours in phosphate buffer (PBS) added with EDTA (0.24 mM), has been filtered through a membrane with 0.45μ porosity (Millex HV Filters) and the proteic concentration has been determined according to the method described by Lowry O. et al. in J. Biol. Chem., 193, 265-275, (1951). The solution has been diluted with PBS-EDTA at a concentration of 500 μg protein/ml and the obtained LDL have been incubated at 42° C. for 45 minutes in presence of the lactones solubilized in ethanol (1.7 μl/ml LDL). At the end of the incubation the solutions have been placed on ice for 45 minutes and dialyzed at 4° C. for 36 hours in PBS. The oxidation of the LDL has been carried out with 5 μM cupric sulfate at 37° C. and stopped at the experimental times by cooling at 4° C. and adding 0.24 mM of EDTA. The solutions of LDL have been kept at 4° C. and sheltered from light during the experimental procedure. […] 52, (1978).
# The inhibition of the oxidative process has been evaluated also by means of the study of the fragmentation of the B-100 apolipoprotein through the electrophoretic analysis on polyacrylamide gel in presence of sodium dodecylsulfate (SDS-PAGE), according to the method described by Laemmli U. K., in Nature, 227, 680, (1970). The quantitative evaluation of the disappearance of the B-100 apolipoprotein has been carried out by densitometric unidimensional measurement of the absorbance at λ=633nm, on an electrophoretic plate 13.5 cm long, after colouring with Coomassie Brillant Blue. The reagents used for the preparation and coloration of the gels, the reference standard (SDS-PAGE standards Broad Range--Cat. no. 161-0317), the gradient former (gradient former Bio-Rad Mod. 385) and the electrophoretic cell (Protean II) are Bio-Rad products; the feeder is a LKB Pharmacia Mod. 2197, the densitometer is a Pharmacia LKB Mod. 2222-020 Ultrascan XL with integrators LKB 2220 and LKB 2190 GelScan Software Package.
Compound,Area of the B-100 apolipoprotein peak (0 minutes),Area of the B-100 apolipoprotein peak (60 minutes),Area of the B-100 apolipoprotein peak (90 minutes),Area of the B-100 apolipoprotein peak (120 minutes),Area of the B-100 apolipoprotein peak (150 minutes),Area of the B-100 apolipoprotein peak (180 minutes),Area of the B-100 apolipoprotein peak (360 minutes)
"Cc1c(C)c2c(c(C)c1O)CCC(C)OC(=O)C(C)(C)CCCO2 (stereo not drawn) [Example 3, 6,6,9,13,15,16-Hexamethyl-14-hydroxy-2,8-dioxabicyclo[10.4.0]hexadec-12,14,16-trien-7-one]",2.2 AU/mm,2.0 AU/mm,1.9 AU/mm,1.6 AU/mm,1.5 AU/mm,1.5 AU/mm,1.5 AU/mm
"CCC1CCc2c(C)c(O)c(C)c(C)c2OCCCC(C)(C)C(=O)O1 (stereo not drawn) [Example 6, 9-Ethyl-14-hydroxy-6,6,13,15,16-pentamethyl-2,8-dioxabicyclo[10.4.0]hexadec-12,14,16-trien-7-one]",2.5 AU/mm,2.3 AU/mm,2.1 AU/mm,2.0 AU/mm,1.7 AU/mm,1.6 AU/mm,1.6 AU/mm
"CC(C)(Sc1cc(C(C)(C)C)c(O)c(C(C)(C)C)c1)Sc1cc(C(C)(C)C)c(O)c(C(C)(C)C)c1 [Probucol, reference compound]",2.7 AU/mm,1.8 AU/mm,1.6 AU/mm,0.9 AU/mm,0.9 AU/mm,0.6 AU/mm,0.3 AU/mm
